Test results from patent US12263479B2, “Array microfluidic chip and method of antibiotic susceptibility testing” (MEDFLUID CO., LTD., priority 2021, dated 2025).
Converted amounts (≈) assume the structure as drawn. Where two headings read alike, the source gives them in different places.

What was measured:
E. coli ATCC25922 [1] = details: cited from earlier work
E. coli ATCC25922 [2] = assay: antibiotic susceptibility testing on the array microfluidic chip (redox indicator discoloration); type: cell-based, Escherichia coli; details: for MIC: Escherichia coli, read-out: minimum inhibitory concentration (MIC)
Excerpt: (§1) In the present experiment, the array microfluidic chip of the present disclosure is used to perform the antibiotic susceptibility testing on Escherichia coli ATCC25922 (“E. coli ATCC25922” hereafter) and Staphylococcus aureus ATCC29213 (“S. aureus ATCC29213” hereafter) to three antibiotics, namely Amikacin, Gentamicin and Vancomycin.
(§2) In the experiment, the dried powders of Amikacin, Gentamicin or Vancomycin are respectively placed in different reaction wells of the array microfluidic chip with different contents, and then the array microfluidic chip is sealed and keeps refrigerated. Next, redox indicators with proper amounts are respectively added to the bacteria-containing mediums including E. coli ATCC25922 or S. aureus ATCC29213, and the bacteria-containing mediums are transported to different reaction wells of different array microfluidic chips and then mixed with the antibiotic powders with different contents thereof so as to form the reaction solutions including different concentrations of antibiotics.
Next, the array microfluidic chips are placed in the incubator and cultured at 37° C., and the antibiotic susceptibilities of E. coli ATCC25922 and S. aureus ATCC29213 to Amikacin, Gentamicin and Vancomycin are further assessed based on the discoloration of the reaction solutions. In detail, if E. coli ATCC25922 and S. aureus ATCC29213 can grow under the existence of a specific antibiotic with a particular concentration, the color of the reaction solution including the redox indicator will gradually change from blue to purple, and eventually to pink, and the discoloration can be observed on the array microfluidic chip directly. Therefore, the assessing time of the method of antibiotic susceptibility testing of the present disclosure can be greatly shortened.
Please refer to FIG. 10A, FIG. 10B, FIG. 10C and Table 2 simultaneously. […] Furthermore, in FIG. 10C, the far left one is the image of the independent well performed a negative control test, and it is noted that the testing result of the independent well is not shown in Table 2. […]

S. aureus ATCC29213 [3] = assay: as above; type: cell-based, Staphylococcus aureus; details: 5 hours and 30 minutes
Excerpt: as §1, §2
Next, the array microfluidic chips are placed in the incubator and cultured at 37° C., and the antibiotic susceptibilities of E. coli ATCC25922 and S. aureus ATCC29213 to Amikacin, Gentamicin and Vancomycin are further assessed based on the discoloration of the reaction solutions. […]

S. aureus ATCC29213 [4] = details: cited from earlier work

## NCC[C@H](O)C(=O)N[C@@H]1C[C@H](N)[C@@H](O[C@H]2O[C@H](CN)[C@@H](O)[C@H](O)[C@H]2O)[C@H](O)[C@H]1O[C@H]1O[C@H](CO)[C@@H](O)[C@H](N)[C@H]1O [Amikacin]
E. coli ATCC25922 [1]
  CLSI standard value MIC: 0.5˜4 μg/mL
E. coli ATCC25922 [2]; ATCC25922, array microfluidic chip, 37° C., 4 hours
  MIC: 1 mg/L (≈ 1.71 µM)
S. aureus ATCC29213 [3]; Staphylococcus aureus, ATCC29213, 37° C., read-out: minimum inhibitory concentration
  MIC: 1 mg/L (≈ 1.71 µM)
S. aureus ATCC29213 [4]
  CLSI standard value MIC: 1˜4 μg/mL

## CN[C@H](CC(C)C)C(=O)N[C@H]1C(=O)N[C@@H](CC(N)=O)C(=O)N[C@H]2C(=O)N[C@H]3C(=O)N[C@H](C(=O)N[C@H](C(=O)O)c4cc(O)cc(O)c4-c4cc3ccc4O)[C@H](O)c3ccc(c(Cl)c3)Oc3cc2cc(c3O[C@@H]2O[C@H](CO)[C@@H](O)[C@H](O)[C@H]2O[C@H]2C[C@](C)(N)[C@H](O)[C@H](C)O2)Oc2ccc(cc2Cl)[C@H]1O [Vancomycin]
E. coli ATCC25922 [1]
  CLSI standard value MIC: R-resistance
E. coli ATCC25922 [2]; ATCC25922, 4 h
  MIC: > 16 mg/L
S. aureus ATCC29213 [4]
  CLSI standard value MIC: 0.5˜2 μg/mL

## Gentamicin
E. coli ATCC25922 [1]
  CLSI standard value MIC: 0.251 µg/mL
E. coli ATCC25922 [2]; array microfluidic chip, 37° C., 4 hours
  minimum inhibitory concentration (MIC): 1 mg/L
S. aureus ATCC29213 [3]; 37° C.
  minimum inhibitory concentration: 0.25 mg/L
S. aureus ATCC29213 [4]
  CLSI standard value MIC: 0.12˜1 μg/mL
